Experimental data taken from patent US7576177B2, “Hsp peptides and analogs for modulation of immune responses via antigen presenting cells” (Andromeda Biotech Ltd., priority 2002, dated 2009).
Where two headings read alike, the source gives them in different places.

Assays:
[1] = test system: THP-1 cells
Experimental: Alternatively, APCs exposed to Hsp peptides and analogs are tested for direct influence on cytokine production. For example, pre-monocyte like derived cells (e.g. human monocytic cell line THP-1), which can be differentiated to monocytes by treatment with 100 nM phorbol ester (12-O-tetradecanoylphorbol-13-acetate, PMA) for 72 hours, are used. […] Differentiated cells are preincubated with the tested compounds or incubated after PMA treatment following subsequent stimulus with LPS. Secreted amounts of cytokines (such as TNF, and IP-10) are measured. Another example for direct measuring of cytokines secreted from APCs exposed to Hsp peptides and analogs involve measurement of cytokines (e.g. IP-10 and IL-8) secretion in human peripheral blood mononuclear cells cultured first with GM-CSF and IL4 and then with LPS, zymosan or tested peptide. These cells are also used for investigation of cell surface antigens (e.g. CD83 and CD86) indicating their maturation.
The human cell line THP-1 was used for this assay. These cells are pre-monocyte like derived from acute monocytic leukemia and can be differentiated to monocytes by treatment with 100 nM phorbol ester (12-O-tetradecanoylphorbol-13-acetate, PMA) for 72 hours. During this time the cells change morphology from round cells growing in suspension to larger, flat, adherent cells.

[2] = test system: peripheral blood mononuclear cells cultured with GM-CSF and IL4 (dendritic cells); assay: Peripheral blood derived dendritic cells: secreted cytokines (IP-10, IL-8) and cell surface antigens (CD83, CD86); type: cell-based, human; conditions: for IL-8 / IP-10: overnight
Experimental: The effect of the compositions of the present invention on peripheral blood derived dendritic cells, was tested according to a protocol described by Re, F. and Strominger, J. L. 2001. Toll-like receptor 2 (Tlr2) and Tlr4 differentially activate human dendritic cells. (J Biol Chem 276: 37692-9). According to this method immature dendritic cells derived from human peripheral blood are used. The outcome after incubating the cells with tested molecules is different if the stimulation is through the Toll 4 receptor or the Toll 2 receptor. According to the authors, Toll 2 signaling by stimulation with zymosan is associated with a Th2 kind of response (exemplified by IL-8) and Toll 4 signaling, such as obtained by LPS stimulation (exemplified by IP-10), with a Th1 type of response. The compositions of the present invention were tested using a similar assay system in order to check which stimulation type they induce. […] The increase in CD86 expression after exposure of APCs to Hsps or Hsp derived peptides is important since CD86 (B7.2) is an essential component of the immunological synapse formed between T cells and APC. This synapse consists of CD80 and CD86 on the side of the APC and CD28 and CD40 on the side of the T cell. T cell recognition of peptide on APC without the concurrent expression of CD86 gives rise to anergy instead of a T cell response. Therefore in order to produce a response all components must be present.
The assay was based on the protocol described by Re, F. and Strominger, J. L. 2001. Toll-like receptor 2 (Tlr2) and Tlr4 differentially activate human dendritic cells. (J. Biol Chem 276: 37692-9).
Peripheral blood mononuclear cells were prepared from leucocytes from blood lots obtained from the blood bank. The cells were plated at 10^8 cells/10 ml/Petri dish in RPMI medium including 10% FCS and allowed to adhere at 37° C. for 2 hours. At the end of this time, the non-adherent cells were washed off the plates with PBS and the adherent cells resuspended in fresh medium as before. The cells were then cultured for at least 8 days with the addition of GM-CSF and IL4 with the medium changed every 4 days. After this time, the cells were harvested and cultured overnight with LPS, zymosan or p277(Val^6-Va^11). The next day, the supernatant was collected for assay of the secreted cytokines (IP-10 and IL-8) and the cells were harvested for investigation of the cell surface antigens (CD83, CD86). CD83 is an antigen characteristic of dendritic cells. […] The second marker, CD86 (B7.2) is characteristic of mature dendritic cells. The marker CD86 is an essential component of the immunological synapse formed between T cells and APC. This synapse consists of CD80 and CD86 on the side of the APC and CD28 and CD40 on the side of the T cell. This is of course in addition to the specific recognition between the T cell receptor and peptide held in the MHC of the APC. T cell recognition of peptide on APC without the concurrent expression of CD86 gives rise to anergy instead of a T cell response.

[3] = differentiated THP-1 cells incubated with peptide
[4] = preincubation, subsequent stimulus with 10 ng/ml LPS

## VLGGGVALLRVIPALDSLTPANED [p277(Val^6-Val^11)]
[1]; [3]
  direct IP-10 secretion: did not secrete TNF, or IP-10 directly
  direct TNF secretion: did not secrete TNF
[1]; preincubation with 0.0128 ng/ml, then 10 ng/ml LPS
  % stimulation of IP-10 secretion: −48%
[1]; preincubation with 0.064 ng/ml, then 10 ng/ml LPS
  % stimulation of IP-10 secretion: 52%
[1]; preincubation with 0.32 ng/ml, then 10 ng/ml LPS
  % stimulation of IP-10 secretion: 61%
[1]; preincubation with 1.6 ng/ml, then 10 ng/ml LPS
  % stimulation of IP-10 secretion: 46%
[1]; preincubation with 8 ng/ml, then 10 ng/ml LPS
  % stimulation of IP-10 secretion: 77%
[1]; preincubation with 40 ng/ml, then 10 ng/ml LPS
  % stimulation of IP-10 secretion: 141%
[1]; preincubation with 200 ng/ml, then 10 ng/ml LPS
  % stimulation of IP-10 secretion: 45%
[1]; preincubation with 1000 ng/ml, then stimulation with 10 ng/ml LPS
  % stimulation of IP-10 secretion: 45%
[1]; [4]
  amount of IP-10 secreted after preincubation and LPS (in words): increased amount of IP-10 secreted
  amount of TNF after preincubation and LPS: not significantly affected
[2]; overnight stimulation
  IL-8 secretion (in words): resulted in IL-8 secretion
  IP-10 secretion (in words): no IP-10 secretion
[2]; overnight stimulation, FIG. 3
  maturation: percentage of cells stained with anti-CD86: increase of maturation
[2]; stimulus 0.5 ng/ml
  IL-8: 2368 pg/mL
  IP-10: -1 pg/mL
[2]; stimulus 5 ng/ml
  IP-10: 2 pg/mL
[2]; stimulus 50 ng/ml
  IL-8: 2574 pg/mL
  IP-10: 39 pg/mL
[2]; stimulus 0.5 μg/ml
  IP-10: 21 pg/mL
